According to patent US8367659B2, “Oxazinyl isoflavonoid compounds, medicaments and use” (Marshall Edwards, Inc., priority 2007, dated 2013):
Read-outs that look alike come from different tables or passages of the source. Values belong to the compound of their own block, whether it stands above or below them.

How the values were obtained:
[1] = tested on: PGE2 synthesis in RAW 264.7 murine macrophages; assay: LPS-induced PGE2 synthesis in RAW 264.7 murine macrophages; assay type: cell-based, mouse; settings: 10 μM; relative to vehicle alone; FIG. 3
Method: The mouse macrophage cell line RAW 264.7 was cultured in DMEM supplemented with foetal calf serum (FCS), […] glutamine and 50 U/ml penicillin/streptomycin. Cells were treated with either test compound (in 0.025% DMSO) or vehicle alone, and added one hour before 50 ng/ml LPS. After incubation for 24 h, culture media was collected for PGE2 or TXB2 measurement by ELISA (Cayman Chemical), and TNFα measurement using an ELISA (Becton Dickinson). Test compounds were examined a concentration of 10 μM. […] Consequently, to assess the effect of test compounds on various analytes, cell viability was taken into consideration with the use of the formula: Actual effect of test compound=measured effect−(effect on cell viability×measured effect)

[2] = tested on: B cells; assay: B cell proliferation (LPS-stimulated mouse splenocytes, MTT); assay type: cell-based, Skh-1:HR 1 (hairless) mice; settings: 10 μM, 3 days
Method: (§1) Male Skh-1:HR 1 (hairless) mice, approximately six weeks old were killed by cervical dislocation. Single cell suspensions were made from the spleen and erythrocytes were lysed in buffer (0.14 M NH4Cl, 17 mM Tris, pH 7.2). The remaining splenocytes were cultured in RPMI-1640 (Gibco) supplemented with 10% (v:v) FBS, 200 mM L-glutamine, penicillin/streptomycin and […] 2-mercaptoethanol. Splenocytes were added to quadruplicate wells containing either concanavalin A (ConA, Sigma-Aldrich—0.4 μg/well), LPS (Sigma-Aldrich—1 μg/well) or no mitogen, as well 10 μM of test compound in DMSO. Samples were analysed after 3 days incubation at 37° C. in 5% CO2 in air. Methylthiazoletetrazolium (MTT) is bioreduced by viable cells into a coloured formazan product that is soluble in DMSO. Thus the quantity of formazan product is directly proportional to the number of living cells in culture, and can be measured using a spectrophotometer at 570 nm. MTT was added to each well, incubated for a further 4 hrs and then colour developed with 0.04 N HCl in isopropanol. Culture supernatants were stored after collection at −80° C. and analysed by ELISA (BD Biosciences) for IFN-γ (a Th-1 cytokine) and for T cells alone, IL-6 (a Th-2 cytokine).

[3] = tested on: IL-6; assay: IL-6 synthesis by mouse splenocytes (ELISA); assay type: cell-based, Skh-1:HR 1 (hairless) mice; settings: 10 μM; 3 days
Method: as §1

[4] = tested on: Rabbit kidney (RK-13) cells; assay: Toxicity to normal cells, rabbit kidney (RK-13) cells; assay type: cell-based; settings: Oryctolagus cuniculus
Method: IC50 values were determined for each cell line. Cells were seeded in 96-well plates at an appropriate cell density as determined from growth kinetics analysis and cultured for 5 days in the absence and presence of the test compounds. Cell proliferation was assessed after the addition of 20 μl of 3-4,5 dimethylthiazol-2,5-diphenyl tetrazolium bromide (MTT, 2.5 mg/ml in PBS, Sigma) for 3-4 hrs at 37° C. according to manufacturer's instructions. IC50 values were calculated from semi-log plots of % of control proliferation on the y-axis against log dose on the x-axis.
The neonatal foreskin fibroblasts (NFF) were a gift from Dr. Peter Parsons (Queensland Institute of Medical Research). Rabbit kidney (RK-13) cells were obtained from Miller Whalley (Macquarie University). Both cell lines were cultured in RPMI supplemented with 10% FCS(CSL, Australia), penicillin (100 U/ml), streptomycin ([…]), L-glutamine (2 mM) and sodium bicarbonate (1.2 g/L), and cultured at 37° C. in a humidified atmosphere of 5% CO2. IC50 values were determined as described above.

[5] = tested on: low density lipoprotein (LDL); assay: Inhibition of Cu2+-induced oxidation of LDL (lipid peroxides, FOX assay); assay type: biochemical
Method: Blood was collected by venipuncture and plasma separated by centrifugation. LDL was then isolated from plasma using a 4-step sodium chloride density gradient and ultracentrifuged at 200,000 g for 20 hours at 4° C. The collect LDL was purified by passage through gel filtration PD10 column to remove excess salt and EDTA, and stored in the dark at 4° C. to prevent auto-oxidation and used with two weeks of isolation. The LDL cholesterol content was measure using a standard enzymatic method and protein concentration determined by the Lowry method using BSA as the standard.
[…] Oxidation reactions were initiated by the addition of freshly prepared Cu^2+ solution, such that the final concentration of CuSO4 was 5 μM. […] The extent of lipoprotein oxidation was determined by measuring the formation of lipid-peroxides on aliquots removed every 30-minute over a 3-hour period. Peroxides were determined at each time point by the ferrous oxidation-xylenol orange (FOX) assay using standard hydrogen peroxide curve (5 to 200 μM). Compounds (1) and (2) were examined in at least two separate experiments performed on separate days.

[6] = tested on: caspase-3/7 activity in A7r5 rat aortic smooth muscle cells; assay: Caspase-3/7 activity (apoptosis) in A7r5 rat aortic smooth muscle cells; assay type: cell-based; settings: 10, 50 and 100 μM; FIG. 14
Text: Activation of the caspase cascade is an integral event in the apoptotic pathway. Caspase-3 is one of the important “executioner” caspase enzymes, triggering the cleavage of numerous proteins that lead to the ordered breakdown of cells. The detection of caspase-3 activation is frequently used as a positive marker for apoptosis. A homogeneous luminescent caspase-3/7 assay, the Caspase-Glo™ 3/7 Assay (Promega Corp.) was used to provide an extremely sensitive measure of caspase activation. VSMC were incubated with different concentrations (0 [vehicle alone], 10, 50 and 100 μM) of test compounds. The assay used a proluminescent substrate containing the DEVD sequence recognized by caspase-3 and -7. The caspase-Glo™ 3/7 Reagent produced luminescence that is directly proportional to the amount of caspase-3/7 activity. The luminescence is linear over four orders of magnitude of caspase concentration and over a broad range of cell densities.

EC50 ([5]; LDL 0.1 mg/mL, CuSO4 5 μM, read-out: EC50, concentration at which 50% of the LDL oxidation was inhibited): 0.63 µM
SMILES: CC(c1ccccc1)N1COc2cc3c(cc2C1)C=C(c1ccc(O)cc1)CO3 (stereo not shown) [Compound 2, 4-(3-(1-Phenylethyl)-2,3,4,8-tetrahydrochromeno[6,7-e][1,3]oxazin-7-yl)phenol]
mean change of LPS-induced PGE2 synthesis [1]: greatest inhibition
effect on B cells [2]: markedly and significantly immunosuppressive
synthesis of IL-6 into the supernatant [3]: concomitant reduction
IC50 ([4]; normal, non-transformed cells, read-out: IC50 μM, RK Rabbit Kidney): 53.3 µM
IC50 ([4]; read-out: toxicity to RK-13 cells (IC50)): > 30 µM
lipid peroxide formation ([5]; LDL 0.1 mg/ml + compound 0.1 μM + Cu^++ 5 μM, 0 min): 10.5 ± 2.93
lipid peroxide formation ([5]; LDL 0.1 mg/ml + compound 0.1 μM + Cu^++ 5 μM, 30 min): 13.9 ± 2.51
lipid peroxide formation ([5]; LDL 0.1 mg/ml + compound 0.1 μM + Cu^++ 5 μM, 60 min): 23.7 ± 4.71
lipid peroxide formation ([5]; LDL 0.1 mg/ml + compound 0.1 μM + Cu^++ 5 μM, 90 min): 75.1 ± 8.43
lipid peroxide formation ([5]; LDL 0.1 mg/ml + compound 0.1 μM + Cu^++ 5 μM, 120 min): 138.5 ± 2.94
lipid peroxide formation ([5]; LDL 0.1 mg/ml + compound 0.1 μM + Cu^++ 5 μM, 180 min): 173.7 ± 34.4
lipid peroxide formation ([5]; LDL 0.1 mg/ml + compound 1.0 μM + Cu^++ 5 μM, 0 min): 10.22 ± 2.9
lipid peroxide formation ([5]; LDL 0.1 mg/ml + compound 1.0 μM + Cu^++ 5 μM, 30 min): 11.62 ± 2.4
lipid peroxide formation ([5]; LDL 0.1 mg/ml + compound 1.0 μM + Cu^++ 5 μM, 60 min): 12.08 ± 3.2
lipid peroxide formation ([5]; LDL 0.1 mg/ml + compound 1.0 μM + Cu^++ 5 μM, 90 min): 18.25 ± 3.2
lipid peroxide formation ([5]; LDL 0.1 mg/ml + compound 1.0 μM + Cu^++ 5 μM, 120 min): 35.12 ± 0.4
lipid peroxide formation ([5]; LDL 0.1 mg/ml + compound 1.0 μM + Cu^++ 5 μM, 180 min): 133.1 ± 18.3
lipid peroxide formation ([5]; LDL 0.1 mg/ml + compound 10 μM + Cu^++ 5 μM, 0 min): 10.20 ± 2.6
lipid peroxide formation ([5]; LDL 0.1 mg/ml + compound 10 μM + Cu^++ 5 μM, 30 min): 15.99 ± 0.1
lipid peroxide formation ([5]; LDL 0.1 mg/ml + compound 10 μM + Cu^++ 5 μM, 60 min): 18.26 ± 0.8
lipid peroxide formation ([5]; LDL 0.1 mg/ml + compound 10 μM + Cu^++ 5 μM, 90 min): 20.64 ± 1.3
lipid peroxide formation ([5]; LDL 0.1 mg/ml + compound 10 μM + Cu^++ 5 μM, 120 min): 23.68 ± 1.2
lipid peroxide formation ([5]; LDL 0.1 mg/ml + compound 10 μM + Cu^++ 5 μM, 180 min): 24.6 ± 21.9
lipid peroxide formation ([5]; LDL 0.1 mg/ml + compound 100 μM + Cu^++ 5 μM, 0 min): 12.09 ± 2.8
lipid peroxide formation ([5]; LDL 0.1 mg/ml + compound 100 μM + Cu^++ 5 μM, 30 min): 15.93 ± 5.4
lipid peroxide formation ([5]; LDL 0.1 mg/ml + compound 100 μM + Cu^++ 5 μM, 60 min): 19.40 ± 7.8
lipid peroxide formation ([5]; LDL 0.1 mg/ml + compound 100 μM + Cu^++ 5 μM, 90 min): 23.27 ± 8.7
lipid peroxide formation ([5]; LDL 0.1 mg/ml + compound 100 μM + Cu^++ 5 μM, 120 min): 28.76 ± 5.0
lipid peroxide formation ([5]; LDL 0.1 mg/ml + compound 100 μM + Cu^++ 5 μM, 180 min): 28.6 ± 12.9
lipid peroxide formation ([5]; compound 100 μM + Cu^++ 5 μM, without LDL, 0 min): 7.69 ± 3.8
lipid peroxide formation ([5]; compound 100 μM + Cu^++ 5 μM, without LDL, 30 min): 14.97 ± 0.4
lipid peroxide formation ([5]; compound 100 μM + Cu^++ 5 μM, without LDL, 60 min): 19.19 ± 2.1
lipid peroxide formation ([5]; compound 100 μM + Cu^++ 5 μM, without LDL, 90 min): 24.30 ± 4.3
lipid peroxide formation ([5]; compound 100 μM + Cu^++ 5 μM, without LDL, 120 min): 28.31 ± 2.8
lipid peroxide formation ([5]; compound 100 μM + Cu^++ 5 μM, without LDL, 180 min): 33.20 ± 6.7

SMILES: Oc1cccc(C2=Cc3ccc(O)cc3OC2)c1 [Compound 37-DHE, 3′,7-dihydroxy-isoflav-3-ene, reference compound]
induction of caspase-3/7 activity, apoptosis [6]: no activity
